From patent publication US20070197512A1, “Carboxylic Acid Compounds and Use Thereof” (Japan Tobacco Inc., priority 2006, published 2007)

Key:
human URAT1 = biological target: T1, human URAT1 (Homo sapiens, UniProt Q96S37); assay: Uric acid transport inhibitory test using human URAT1-expressing cells; type: cell-based; settings: human URAT1-expressing HEK293 cells, 14C-uric acid 50 μM, uptake 5 min, room temperature; read-out: hURAT1 IC50
T1 construct: Human URAT1 full length cDNA was subcloned to expression vector pcDNA3.1; expressed in transfected cells; host or cells: HEK293 cells (pcDNA3.1, geneticin-selected)
T1 sequence (Q96S37 1-553): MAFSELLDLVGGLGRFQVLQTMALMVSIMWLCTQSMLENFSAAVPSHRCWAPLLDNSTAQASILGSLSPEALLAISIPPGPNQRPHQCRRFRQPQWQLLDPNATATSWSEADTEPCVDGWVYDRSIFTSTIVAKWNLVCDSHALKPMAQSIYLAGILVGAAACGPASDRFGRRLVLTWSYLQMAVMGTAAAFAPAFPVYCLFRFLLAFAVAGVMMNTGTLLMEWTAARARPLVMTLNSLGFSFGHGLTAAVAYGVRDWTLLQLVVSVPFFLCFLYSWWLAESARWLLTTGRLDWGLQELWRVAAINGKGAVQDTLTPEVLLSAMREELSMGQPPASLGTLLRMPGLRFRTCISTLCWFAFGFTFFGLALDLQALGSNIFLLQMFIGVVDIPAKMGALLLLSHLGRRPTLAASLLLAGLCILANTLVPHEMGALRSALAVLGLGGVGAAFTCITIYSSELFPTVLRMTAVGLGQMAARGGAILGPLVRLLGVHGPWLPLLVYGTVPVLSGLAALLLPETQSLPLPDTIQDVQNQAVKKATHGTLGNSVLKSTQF
Excerpt: Experimental Example 1 Uric Acid Transport Inhibitory Test Using Human URAT1-Expressing Cells
Human URAT1 full length cDNA was subcloned to expression vector pcDNA3.1 and human URAT1 gene was transfected into human embryonic kidney derived cell line (HEK293 cells) by liposome method using Lipofectamine2000. Simultaneously, HEK293 cells transfected with expression vector pcDNA3.1 alone (hereinafter mock cells) were also produced. HEK293 cells expressing human URAT1 gene or mock cells were selected with geneticin resistance as an index. The functional expression of human URAT1 gene was confirmed by a method similar to the following method, using ^14C-uric acid transport into the cells as an index.
Human URAT1-expressing HEK293 cells or mock cells were cultured in Dulbecco's modified Eagle's MEM medium (high glucose) containing 10% fetal bovine serum, 0.5 mg/mL geneticin sulfate, 100 units/mL penicillin and 100 μg/mL streptomycin under the conditions of 37° C. and 5% CO2 in an incubator. The cells were plated in a 96 well plate (poly-D-Lysine coated) at 1×10^5 cells/well and the following uric acid transport inhibitory test was performed 24 hr later. This test was performed at room temperature.
After the medium was removed by aspiration from each well, the cells were washed once with Hank's Balanced Salt Solution (HBSS) and preincubated with HBSS (100 μL/well) for 5 min. HBSS was aspirated and an assay buffer (wherein NaCl in the above-mentioned HBSS had been substituted with Na-gluconate) containing various concentrations of the Example compound and a radioactive ligand (14C-uric acid; final concentration 50 μM) was added to each well at 50 μL/well and an uptake reaction was carried out for 5 min. After the reaction, the cells were washed twice with ice-cold HBSS (150 μL/well), and Microscinti™ 20 (PerkinElmer) was added at 50 μL/well. The cells were lysed by stirring and the radioactivity of each well was measured by a liquid scintillation counter (TOP COUNT, Packard).
The uric acid transport rate (%) of the Example compound at each concentration was calculated relative to the radioactivity (difference in radioactivity between human URAT1-expressing HEK293 cells and mock cells without addition of Example compound (DMSO addition)) showing URAT1 specific uric acid transport as 100%, and the concentration (IC50) of the Example compound necessary for inhibiting the uric acid transport rate by 50% was determined. In Table 24-Table 27, “+++” means IC50 value of less than 300 nM, “++” means IC50 value of 300 nM to less than 3000 nM, and “+” means IC50 value of not less than 3000 nM.

CYP2C9 = biological target: T2, CYP2C9 (Homo sapiens, UniProt P11712); assay: CYP inhibitory test using human liver microsome; type: in vitro ADME; settings: model substrate diclofenac, 37° C., 10 min, read-out: CYP2C9 inhibition, IC50
T2 construct: Human liver microsome (20 mg protein/mL, 5 μL, Xenotech LLC, purchased from Lenexa Kans.); tissue Xenotech LLC; host or cells: human liver microsomes
T2 sequence (P11712 whole entry): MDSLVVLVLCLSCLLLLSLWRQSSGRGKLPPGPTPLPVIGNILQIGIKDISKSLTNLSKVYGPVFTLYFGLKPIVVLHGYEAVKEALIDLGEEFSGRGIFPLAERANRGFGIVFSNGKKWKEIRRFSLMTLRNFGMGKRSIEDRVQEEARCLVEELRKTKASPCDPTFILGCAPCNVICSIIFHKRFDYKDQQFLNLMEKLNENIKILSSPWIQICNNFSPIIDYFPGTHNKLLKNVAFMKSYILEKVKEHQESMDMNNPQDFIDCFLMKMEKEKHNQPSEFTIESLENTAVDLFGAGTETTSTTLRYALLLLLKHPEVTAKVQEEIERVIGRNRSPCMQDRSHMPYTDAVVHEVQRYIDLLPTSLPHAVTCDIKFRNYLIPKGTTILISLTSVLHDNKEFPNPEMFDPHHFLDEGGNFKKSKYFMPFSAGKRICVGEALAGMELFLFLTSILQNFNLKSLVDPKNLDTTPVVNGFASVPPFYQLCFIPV
Procedure: Experimental Example 2 CYP Inhibitory Test Using Human Liver Microsome
Human liver microsome (20 mg protein/mL, 5 μL, Xenotech LLC, purchased from Lenexa Kans.) was suspended in 100 mM potassium phosphate buffer (70 μL, pH 7.4), mixed with a solution (0.5 μL) of the Example compound dissolved in DMSO and preincubated at 37° C. for 5 min. NADPH producing system coenzyme solution (β-nicotinamide adenine dinucleotide phosphate: 5.2 mM, D-glucose-6-phosphate: 13.2 mM, magnesium chloride: 13.2 mM, glucose-6-phosphate dehydrogenase: 1.8 U/mL) 25 μL, and a model substrate (CYP3A4: midazolam 1 mM, CYP2D6: bufuralol 1 mM, CYP2C9: diclofenac 2 mM) 0.5 μL dissolved in DMSO were added to start the reaction. After incubation at 37° C. for 10 min., acetonitrile (200 μL) containing an internal standard substance (propranolol 1 μM) was added and the mixture was centrifuged (room temperature, 3000 rpm, 20 min). The amount of the metabolite produced from each model substrate in the supernatant was measured by high performance liquid chromatography/mass spectrometry (LC/MS/MS) and each CYP enzyme activity was determined. The concentration showing 50% inhibition (IC50) was calculated relative to the enzyme activity without addition of Example compound (DMSO 0.5 μL added) as 100%.
As a comparative example, the CYP enzyme activity of the compound described in JP-A-3-135917 was examined by determining the IC50 value in the same manner as above.

Structure (SMILES) | IC50 (human URAT1) [µM] | IC50 (CYP2C9) [µM]
Cc1cc(Cl)c2c(c1)N(CCC(=O)O)C(=O)[C@@H](C(C)C)O2 [Example 106, 3-((R)-8-chloro-2-isopropyl-6-methyl-3-oxo-2,3-dihydrobenzo[1,4]oxazin-4-yl)propionic acid] | < 0.3 | > 50
CC(C)c1cccc2c1OC(c1ccccc1)C(=O)N2CCC(=O)O (stereo not shown) [Example 38, 3-(8-isopropyl-3-oxo-2-phenyl-2,3-dihydrobenzo[1,4]oxazin-4-yl)propionic acid] | < 0.3 | > 50
CC(C)c1cccc2c1OC(C(C)C)C(=O)N2CC(=O)O (stereo not shown) [Example 9, (2,8-diisopropyl-3-oxo-2,3-dihydrobenzo[1,4]oxazin-4-yl)acetic acid] | ≥ 3 | 30
Cc1ccc2c(c1)N(C(=O)/C=C/C(=O)O)CC(c1ccccc1)O2 (stereo not shown) [Example 65, (E)-4-(6-methyl-2-phenyl-2,3-dihydrobenzo[1,4]oxazin-4-yl)-4-oxo-2-butenoic acid] | ≥ 3 | > 50
Cc1c(Cl)cc2c(c1Cl)OC(C(C)C)C(=O)N2CCC(=O)O (stereo not shown) [Example 94, 3-(6,8-dichloro-2-isopropyl-7-methyl-3-oxo-2,3-dihydrobenzo[1,4]oxazin-4-yl)propionic acid] | < 0.3 | > 50
CC(C)c1cccc2c1OC(c1ccccc1)CN2C(=O)/C=C/C(=O)O (stereo not shown) [Example 45, (E)-4-(8-isopropyl-2-phenyl-2,3-dihydrobenzo[1,4]oxazin-4-yl)-4-oxo-2-butenoic acid] | 0.3 to 3 | 
CC(C)c1cccc2c1O[C@@H](C(C)C)C(=S)N2CC(=O)O [Example 7, ((S)-2,8-diisopropyl-3-thioxo-2,3-dihydrobenzo[1,4]oxazin-4-yl)acetic acid] | 0.3 to 3 | 
CC(C)c1cccc2c1OC(C(C)C)CN2C(=O)CCC(=O)O (stereo not shown) [Example 21, 4-(2,8-diisopropyl-2,3-dihydrobenzo[1,4]oxazin-4-yl)-4-oxobutyric acid] | ≥ 3 | 
CC(C)C1Oc2ccc([N+](=O)[O-])cc2N(CCC(=O)O)C1=O (stereo not shown) [Example 96, 3-(2-isopropyl-6-nitro-3-oxo-2,3-dihydrobenzo[1,4]oxazin-4-yl)propionic acid] | 0.3 to 3 | 
CCc1cccc2c1OC(C(C)C)CN2C(=O)/C=C/C(=O)O (stereo not shown) [Example 60, (E)-4-(8-ethyl-2-isopropyl-2,3-dihydrobenzo[1,4]oxazin-4-yl)-4-oxo-2-butenoic acid] | 0.3 to 3 | 
Cc1ccc2c(c1)N(CCC(=O)O)C(=O)C(C(C)C)O2 (stereo not shown) [Example 58, 3-(2-isopropyl-6-methyl-3-oxo-2,3-dihydrobenzo[1,4]oxazin-4-yl)propionic acid] | 0.3 to 3 | 
COC(=O)CN1C(=O)COc2ccccc21 [Example 1, (3-oxo-2,3-dihydrobenzo[1,4]oxazin-4-yl)acetic acid methyl ester] | ≥ 3 | 
CCC1Oc2c(C(C)C)cccc2N(CC(=O)O)C1=O (stereo not shown) [Example 39, (2-ethyl-8-isopropyl-3-oxo-2,3-dihydrobenzo[1,4]oxazin-4-yl)acetic acid] | ≥ 3 | 
O=C(O)CCN1C(=O)C(c2ccccc2)Oc2cc(Cl)ccc21 (stereo not shown) [Example 76, 3-(7-chloro-3-oxo-2-phenyl-2,3-dihydrobenzo[1,4]oxazin-4-yl)propionic acid] | ≥ 3 | 
COc1cc(C)c2c(c1)N(CCC(=O)O)C(=O)C(C(C)C)O2 (stereo not shown) [Example 104, 3-(2-isopropyl-6-methoxy-8-methyl-3-oxo-2,3-dihydrobenzo[1,4]oxazin-4-yl)propionic acid] | < 0.3 | 

Results, then the compound that gave them:

IC50 (human URAT1) [µM] | IC50 (CYP2C9) [µM] | Structure (SMILES)
 | 16 | CC(C)c1cccc2c1OC(C(C)C)C(=S)N2CC(=O)O (stereo not shown) [Comparative Example, reference compound]
< 0.3 | > 50 | Cc1cc(C)c2c(c1)N(CCC(=O)O)C(=O)[C@@H](C(C)C)O2 [Example 74, 3-((R)-2-isopropyl-6,8-dimethyl-3-oxo-2,3-dihydrobenzo[1,4]oxazin-4-yl)propionic acid]
< 0.3 | > 50 | CCCC1Oc2c(C)cc(C)cc2N(CCC(=O)O)C1=O (stereo not shown) [Example 102, 3-(6,8-dimethyl-3-oxo-2-propyl-2,3-dihydrobenzo[1,4]oxazin-4-yl)propionic acid]
0.3 to 3 | > 50 | CC(C)c1cccc2c1OC(C(C)C)CN2C(=O)/C=C/C(=O)O (stereo not shown) [Example 36, (E)-4-(2,8-diisopropyl-2,3-dihydrobenzo[1,4]oxazin-4-yl)-4-oxo-2-butenoic acid]
0.3 to 3 | > 50 | Cc1ccc2c(c1)N(C(=O)/C=C/C(=O)O)CC(C(C)C)O2 (stereo not shown) [Example 64, (E)-4-(2-isopropyl-6-methyl-2,3-dihydrobenzo[1,4]oxazin-4-yl)-4-oxo-2-butenoic acid]
0.3 to 3 | > 50 | CC(C)[C@@H]1Oc2c(Cl)cc(Cl)cc2N(CCC(=O)O)C1=O [Example 111, 3-((S)-6,8-dichloro-2-isopropyl-3-oxo-2,3-dihydrobenzo[1,4]oxazin-4-yl)propionic acid]
0.3 to 3 | > 50 | Cc1cc(Cl)cc2c1OC(c1ccccc1)CN2C(=O)/C=C/C(=O)O (stereo not shown) [Example 84, (E)-4-(6-chloro-8-methyl-2-phenyl-2,3-dihydrobenzo[1,4]oxazin-4-yl)-4-oxo-2-butenoic acid]
≥ 3 |  | Cc1cc(C)c2c(c1)N(C(=O)/C=C/C(=O)O)CCO2 [Example 85, (E)-4-(6,8-dimethyl-2,3-dihydrobenzo[1,4]oxazin-4-yl)-4-oxo-2-butenoic acid]
< 0.3 |  | Cc1cc(C)c2c(c1)N(CCC(=O)O)C(=O)C(CC(C)C)O2 (stereo not shown) [Example 90, 3-(2-isobutyl-6,8-dimethyl-3-oxo-2,3-dihydrobenzo[1,4]oxazin-4-yl)propionic acid]
0.3 to 3 |  | CC(C)c1cccc2c1OC(C(C)C)C(=O)N2CC(C)(C)C(=O)O (stereo not shown) [Example 42, 3-(2,8-diisopropyl-3-oxo-2,3-dihydrobenzo[1,4]oxazin-4-yl)-2,2-dimethylpropionic acid]
0.3 to 3 |  | CCc1cccc2c1OC(C(C)C)C(=O)N2CCC(=O)O (stereo not shown) [Example 53, 3-(8-ethyl-2-isopropyl-3-oxo-2,3-dihydrobenzo[1,4]oxazin-4-yl)propionic acid]
